Where “and” joins values, the source holds several entries; their conditions need not be identical. Equal values may be shown once.
The compounds below were run against T1, human GPR119 (Homo sapiens, UniProt Q8TDV5) (assay: GPR119 radioligand binding assay ([3H]Cmpd A, membranes of HEK 293FT cells over-expressing hGPR119)). Conditions: competition with 3H-Cmpd A; Ki from IC50 by Cheng-Prusoff; one line per run.
T1 construct: host or cells: HEK293-CRE beta-lactamase cells
T1 sequence (Q8TDV5 1-335): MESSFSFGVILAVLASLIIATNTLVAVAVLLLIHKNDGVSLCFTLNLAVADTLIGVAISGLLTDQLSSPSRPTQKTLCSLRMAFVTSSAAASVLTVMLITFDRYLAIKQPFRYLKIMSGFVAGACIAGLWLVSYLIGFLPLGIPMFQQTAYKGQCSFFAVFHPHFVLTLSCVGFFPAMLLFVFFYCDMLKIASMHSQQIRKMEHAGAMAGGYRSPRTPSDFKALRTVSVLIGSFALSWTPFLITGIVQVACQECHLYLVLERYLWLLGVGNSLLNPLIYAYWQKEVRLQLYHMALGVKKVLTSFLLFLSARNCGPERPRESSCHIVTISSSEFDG
Method: HEK 293FT cells (Invitrogen, Carlsbad, Calif.) were grown in a shake flask in 293Freestyle medium (Invitrogen) supplemented with 50 microg/mL neomycin and 10 mM HEPES (37 C, 8% carbon dioxide, shaking). The cells were centrifuged gently (approximately 500×g, 10 minutes) and the pellet resuspended in a mixture of Dulbecco's PBS(minus Mg++/−Ca++) supplemented with 18% fetal bovine serum (Sigma Aldrich) and P1 virus such that the multiplicity of infection (MOI) was 10 and the final cell density was 1.3×10^6/ml (total volume 2.5 liters). The cells were transferred to a 5 liter Wave Bioreactor Wavebag (Wave Technologies, MA) and incubated for 4 hours at 27 degrees Celsius (17 rocks/min, 7 degrees platform angle); at the end of the incubation period, an equal volume (2.5 liters) of 293Freestyle medium supplemented with 30 mM sodium butyrate (Sigma Aldrich) was added (final concentration=15 mM), and the cells were grown for 20 hours (37 degrees Celsius, 8% CO2 [0.2 liters/min}, 25 rocks/minute, 7 degrees platform angle). Cells were harvested via centrifugation (3,000×g, 10 minutes), washed once on DPBS (minus Ca++/Mg++), resuspended in 0.25M sucrose, 25 mM HEPES, 0.5 mM EDTA, pH 7.4 and frozen at −80 degrees Celsius.
The frozen cells were thawed on ice and centrifuged at 700×g (1400 rpm) for 10 minutes at 4 degrees Celsius. The cell pellet was resuspended in 20 ml phosphate-buffered saline, and centrifuged at 1400 rpm for 10 minutes. The cell pellet was then resuspended in homogenization buffer (10 mM HEPES (Gibco #15630), pH 7.5, 1 mM EDTA (BioSolutions, #BIO260-15), 1 mM EGTA (Sigma, #E-4378), 0.01 mg/ml benzamidine (Sigma #B 6506), 0.01 mg/ml bacitracin (Sigma #B 0125), 0.005 mg/ml leupeptin (Sigma #L 8511), 0.005 mg/ml aprotinin (Sigma #A 1153)) and incubated on ice for 10 minutes. Cells were then lysed with 15 gentle strokes of a tight-fitting glass Dounce homogenizer. The homogenate was centrifuged at 1000×g (2200 rpm) for 10 minutes at 4 degrees Celsius. The supernatant was transferred into fresh centrifuge tubes on ice. The cell pellet was resuspended in homogenization buffer, and centrifuged again at 1000×g (2200 rpm) for 10 minutes at 4 degrees Celsius after which the supernatant was removed and the pellet resuspended in homogenization buffer. This process was repeated a third time, after which the supernatants were combined, Benzonase (Novagen #71206) and MgCl2 (Fluka #63020) were added to final concentrations of 1 U/ml and 6 mM, respectively, and incubated on ice for one hour. The solution was then centrifuged at 25,000×g (15000 rpm) for 20 minutes at 4 degrees Celsius, the supernatant was discarded, and the pellet was resuspended in fresh homogenization buffer (minus Benzonase and MgCl2). After repeating the 25,000×g centrifugation step, the final membrane pellet was resuspended in homogenization buffer and frozen at −80 degrees Celsius. The protein concentration was determined using the Pierce BCA protein assay kit (Pierce reagents A #23223 and B #23224).
Test compounds were serially diluted in 100% DMSO (J. T. Baker #922401). 2 microL of each dilution was added to appropriate wells of a 96-well plate (each concentration in triplicate). Unlabeled Cmpd A, at a final concentration of 10 microM, was used to determine non-specific binding.
^3H-Cmpd A was diluted in binding buffer (50 mM Tris-HCl, pH 7.5, (Sigma #T7443), 10 mM MgCl2 (Fluka 63020), 1 mM EDTA (BioSolutions #BIO260-15), 0.15% bovine serum albumin (Sigma #A7511), 0.01 mg/mL benzamidine (Sigma #B 6506), 0.01 mg/mL bacitracin (Sigma #B 0125), 0.005 mg/mL leupeptin (Sigma #L 8511), 0.005 mg/mL aprotinin (Sigma #A 1153)) to a concentration of 60 nM, and 100 microL added to all wells of 96-well plate (Nalge Nunc #267245).
Membranes expressing GPR119 were thawed and diluted to a final concentration of 20 μg/100 microL per well in Binding Buffer, and 100 microL of diluted membranes were added to each well of 96-well plate. […]

Row | Ki | SMILES
1 | 36 nM | Cc1c(O[C@H]2CCN(C(=O)OC(C)(C)C)C[C@H]2F)ncnc1N1Cc2cnn(C)c2C1 (racemic) [Example 6, tert-Butyl (3,4-cis)-3-fluoro-4-{[5-methyl-6-(1-methyl-4,6-dihydropyrrolo[3,4-c]pyrazol-5(1H)-yl)pyrimidin-4-yl]oxy}piperidine-1-carboxylate (racemic)]
2 | 3.4 nM and 11 nM | Cc1c(O[C@H]2CCN(C(=O)OC3(C)CC3)C[C@H]2F)ncnc1N1Cc2cnn(C)c2C1 (racemic) [Example 7, 1-Methylcyclopropyyl (3,4-cis)-3-fluoro-4-{[5-methyl-6-(1-methyl-4,6-dihydropyrrolo[3,4-c]pyrazol-5(1H)-yl)pyrimidin-4-yl]oxy}piperidine-1-carboxylate (racemic)]
3 | 130 nM | Cc1c(O[C@H]2CCN(C(=O)OC(C)(C)C)C[C@@H]2F)ncnc1N1Cc2cnn(C)c2C1 (racemic) [Example 8, tert-Butyl (3,4-trans)-3-fluoro-4-{[5-methyl-6-(1-methyl-4,6-dihydropyrrolo[3,4-c]pyrazol-5(1H)-yl)pyrimidin-4-yl]oxy}piperidine-1-carboxylate (racemic)]
4 | 502 nM and 229 nM and 171 nM | Cc1c(OC2CCN(C(=O)OC(C)C)CC2)ncnc1N1Cc2cnn(C)c2C1 [Example 2, Isopropyyl 4-{[5-methyl-6-(1-methyl-4,6-dihydropyrrolo[3,4-c]pyrazol-5(1H)-yl)pyrimidin-4-yl]oxy}piperidine-1-carboxylate]
5 | 233 nM | CC(C)OC(=O)N1CCC(Oc2ncnc(N3Cc4cnn(C)c4C3)c2C#N)CC1 [Example 3, Isopropyyl 4-{[5-cyano-6-(1-methyl-4,6-dihydropyrrolo[3,4-c]pyrazol-5(1H)-yl)pyrimidin-4-yl]oxy}piperidine-1-carboxylate]
6 | 51 nM | Cc1c(O[C@H]2[C@@H]3COC[C@H]2CN(C(=O)OC(C)(C)C)C3)ncnc1N1Cc2cnn(C)c2C1 [Example 9, tert-Butyl (9-anti)-9-{[5-methyl-6-(1-methyl-4,6-dihydropyrrolo[3,4-c]pyrazol-5(1H)-yl)pyrimidin-4-yl]oxy}-3-oxa-7-azabicyclo[3.3.1]nonane-7-carboxylate]
